Assays:
Type in all cases: cell-based
Bacillus cereus = assay: Agar plate disc-diffusion, antibacterial; conditions: nutrient agar, 37° C., 48 hours
Procedure: (§1) The agar plate disc-diffusion method was applied. […] The discs were then placed onto the surface of agar plates (nutrient agar for bacteria and Sabouraud's dextrose agar for fungi) seeded with the test organism. Each plate contained 15 mL of the agar medium, previously seeded with 0.2 mL of the broth culture of each organism pregrown for 18 hours. The plates were incubated at 37° C. for 48 hours, and 72 hours for fungi. The inhibition zones was measured in mm. Discs impregnated with DMSO were used as a control, and its inhibition zone was subtracted from the tested compound actual inhibition zone.

Escherichia coli = assay: Agar plate disc-diffusion, antibacterial; conditions: nutrient agar, 37° C., 48 hours
Procedure: as §1

Pseudomonas aeruginosa = assay: Agar plate disc-diffusion, antibacterial; conditions: nutrient agar, 37° C., 48 hours
Procedure: as §1

Staphylococcus aureus = assay: Agar plate disc-diffusion, antibacterial; conditions: nutrient agar, 37° C., 48 hours
Procedure: as §1

Aspergillus flavus = assay: Agar plate disc-diffusion, antifungal; conditions: Sabouraud's dextrose agar, 72 hours
Procedure: as §1

[1] = system: Chrysosporium keratinophilum; assay: Agar plate disc-diffusion, antifungal; conditions: Sabouraud's dextrose agar, 72 hours
Procedure: as §1

[2] = A = concentration of comp. = 10,000 μL
[3] = B = concentration of comp. = 30,000 μL
[4] = C = concentration of comp. = 50,000 μL
[5] = A = concentration of comp. = 10,000 μg/mL

**Q.** Which results are given for `O=C(O)c1cn(C2CC2)c2cc(N3CCNCC3)c(F)cc2c1=O` [Cip., ciprofloxacin]?
**A.** inhibition zone (Bacillus cereus; [2]): 29 mm; inhibition zone (Bacillus cereus; [3]): 31 mm; inhibition zone (Bacillus cereus; [4]): 42 mm; inhibition zone (Escherichia coli; [2]): 30 mm; inhibition zone (Escherichia coli; [3]): 39 mm; inhibition zone (Escherichia coli; [4]): 60 mm; inhibition zone (Pseudomonas aeruginosa; [5]): 29 mm; inhibition zone (Pseudomonas aeruginosa; [3]): 30 mm; inhibition zone (Pseudomonas aeruginosa; [4]): 53 mm; inhibition zone (Staphylococcus aureus; [2]): 43 mm; inhibition zone (Staphylococcus aureus; [3]): 44 mm; inhibition zone (Staphylococcus aureus; [4]): 53 mm; inhibition zone (Aspergillus flavus; [2]): 29 mm; inhibition zone (Aspergillus flavus; [3]): 32 mm; inhibition zone (Aspergillus flavus; [4]): 42 mm; inhibition zone [1, 2]: 29 mm; inhibition zone [1, 3]: 30 mm; inhibition zone [1, 4]: 53 mm

**Q.** Which inhibition zone (Bacillus cereus; [2]) does the source give for `COc1ccc(-c2nc(-c3ccc(Br)cc3)c(-c3ccc(Br)cc3)n2CCCC(=O)O)cc1` [V, 4-(4,5-bis(4-bromophenyl)-2-(4-methoxyphenyl)-1H-imidazol-1-yl)butanoic acid] here?
**A.** 28 mm

**Q.** And the inhibition zone (Bacillus cereus; [3])?
**A.** 30 mm

**Q.** And the inhibition zone (Bacillus cereus; [4])?
**A.** 41 mm

**Q.** And the inhibition zone (Escherichia coli; [2])?
**A.** 26 mm

**Q.** And the inhibition zone (Escherichia coli; [3])?
**A.** 35 mm

**Q.** What about the inhibition zone (Escherichia coli; [4]) of the same molecule?
**A.** 47 mm

**Q.** What about the inhibition zone (Pseudomonas aeruginosa; [5]) of the same molecule?
**A.** 21 mm

**Q.** What about the inhibition zone (Pseudomonas aeruginosa; [3]) of the same molecule?
**A.** 24 mm

**Q.** And the inhibition zone (Pseudomonas aeruginosa; [4])?
**A.** 35 mm

**Q.** And the inhibition zone (Staphylococcus aureus; [2])?
**A.** 18 mm

**Q.** And the inhibition zone (Staphylococcus aureus; [3])?
**A.** 20 mm

**Q.** What about the inhibition zone (Staphylococcus aureus; [4]) of the same molecule?
**A.** 30 mm

**Q.** What about the inhibition zone (Aspergillus flavus; [2]) of the same molecule?
**A.** 19 mm

**Q.** And the inhibition zone (Aspergillus flavus; [3])?
**A.** 21 mm

**Q.** And the inhibition zone (Aspergillus flavus; [4])?
**A.** 32 mm

**Q.** And the inhibition zone [1, 2]?
**A.** 26 mm

**Q.** What about the inhibition zone [1, 3] of the same molecule?
**A.** 28 mm

**Q.** And the inhibition zone [1, 4]?
**A.** 50 mm
